This note sets out measurements from patent US11180494B2, “Substituted amino acids as integrin inhibitors” (Pliant Therapeutics, Inc., priority 2018, dated 2021).

Where only a bound is given, the exact number is not on record here.

In this assay the target is human integrin αvβ6 (Homo sapiens (Human), UniProt P06756+P18564). Put plainly: Proximity-based integrin receptor binding assay (ALPHASCREEN) for inhibitor potency. The note with it: inhibition of binding of TGF-b1 LAP to human integrin αvβ6; values given in ranges. In a few lines: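 AlphaScreen: integrin, compound, TGF-b1 LAP, biotinylated anti-LAP antibody and acceptor beads incubated 2 hours, then streptavidin donor beads 30 minutes, at room temperature in 50 mM Tris-HCl pH 7.5, 0.1% BSA, 1 mM CaCl2 and MgCl2. Excitation 680 nm, emission 520-620 nm; IC50 by four-parameter logistic fit.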
Chain of human integrin αvβ6 (P06756 31-992): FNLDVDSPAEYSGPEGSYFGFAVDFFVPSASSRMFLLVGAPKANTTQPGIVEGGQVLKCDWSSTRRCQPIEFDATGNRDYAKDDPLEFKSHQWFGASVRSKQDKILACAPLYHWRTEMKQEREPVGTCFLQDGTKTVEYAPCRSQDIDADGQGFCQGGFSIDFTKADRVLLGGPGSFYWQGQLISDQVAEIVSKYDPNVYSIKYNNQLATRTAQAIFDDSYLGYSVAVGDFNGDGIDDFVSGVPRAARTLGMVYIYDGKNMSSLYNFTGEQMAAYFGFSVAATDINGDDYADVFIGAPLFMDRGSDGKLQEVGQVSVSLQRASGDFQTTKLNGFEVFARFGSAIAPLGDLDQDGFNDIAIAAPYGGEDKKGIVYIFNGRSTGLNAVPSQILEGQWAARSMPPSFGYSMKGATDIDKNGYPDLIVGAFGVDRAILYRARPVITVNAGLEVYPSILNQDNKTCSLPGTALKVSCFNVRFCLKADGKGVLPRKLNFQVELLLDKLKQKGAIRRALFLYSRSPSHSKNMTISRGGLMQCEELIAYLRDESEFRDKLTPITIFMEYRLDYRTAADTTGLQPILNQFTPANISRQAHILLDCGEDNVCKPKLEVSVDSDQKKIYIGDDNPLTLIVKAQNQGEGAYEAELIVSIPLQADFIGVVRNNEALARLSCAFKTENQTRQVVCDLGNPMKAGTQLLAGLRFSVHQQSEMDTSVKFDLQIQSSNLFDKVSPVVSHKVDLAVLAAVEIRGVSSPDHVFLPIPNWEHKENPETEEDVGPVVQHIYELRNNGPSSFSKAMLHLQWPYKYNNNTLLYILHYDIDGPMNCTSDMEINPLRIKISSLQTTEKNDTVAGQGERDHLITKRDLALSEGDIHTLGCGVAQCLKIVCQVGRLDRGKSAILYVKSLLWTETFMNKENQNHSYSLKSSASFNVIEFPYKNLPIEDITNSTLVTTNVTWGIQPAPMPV
Chain of human integrin αvβ6 (P18564 22-707): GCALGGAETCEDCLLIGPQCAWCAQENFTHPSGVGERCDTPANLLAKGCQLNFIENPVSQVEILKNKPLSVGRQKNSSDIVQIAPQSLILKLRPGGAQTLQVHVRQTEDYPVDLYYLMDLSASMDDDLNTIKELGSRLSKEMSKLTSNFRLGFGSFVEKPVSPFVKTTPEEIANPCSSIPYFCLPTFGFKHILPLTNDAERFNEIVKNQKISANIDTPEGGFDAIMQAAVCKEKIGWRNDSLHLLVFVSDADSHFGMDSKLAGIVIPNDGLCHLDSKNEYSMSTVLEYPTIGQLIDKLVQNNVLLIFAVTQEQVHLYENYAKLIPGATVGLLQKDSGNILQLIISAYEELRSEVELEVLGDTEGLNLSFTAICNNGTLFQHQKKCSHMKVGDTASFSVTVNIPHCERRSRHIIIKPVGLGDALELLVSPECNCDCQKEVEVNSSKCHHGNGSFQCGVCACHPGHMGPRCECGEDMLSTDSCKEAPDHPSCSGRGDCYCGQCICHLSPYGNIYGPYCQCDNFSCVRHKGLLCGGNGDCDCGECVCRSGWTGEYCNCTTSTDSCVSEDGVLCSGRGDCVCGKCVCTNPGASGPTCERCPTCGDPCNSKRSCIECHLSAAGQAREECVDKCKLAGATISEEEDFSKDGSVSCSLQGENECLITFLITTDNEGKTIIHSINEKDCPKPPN
(In Alpha technology, singlet oxygen from a donor bead excites a nearby acceptor bead.)
The IC50 is the concentration that inhibits the measured activity by half. Consider `O=C(O)[C@H](CCO[C@H]1C[C@@H](CCc2ccc3c(n2)NCCC3)C1)NC(=O)C1(C(F)(F)F)CCOCC1` [Compound 183, O-(cis-3-(2-(5,6,7,8-tetrahydro-1,8-naphthyridin-2-yl)ethyl)cyclobutyl)-N-(4-(trifluoromethyl)tetrahydro-2H-pyran-4-carbonyl)homoserine], for which the IC50 is 50 to 250 nM. Consider `CC(C)(C)OC(=O)NCC1(C(=O)N[C@@H](CCO[C@H]2C[C@@H](CCc3ccc4c(n3)NCCC4)C2)C(=O)O)CCOCC1` [Compound 184, N-(4-(((tert-butoxycarbonyl)amino)methyl)tetrahydro-2H-pyran-4-carbonyl)-O-(cis-3-(2-(5,6,7,8-tetrahydro-1,8-naphthyridin-2-yl)ethyl)cyclobutyl)homoserine], for which the half-maximal inhibitory concentration (IC50) was less than 50 nM.

With `O=C(O)[C@H](CCO[C@H]1C[C@H](CCc2ccc3c(n2)NCCC3)C1)NC(=O)C1(Cc2cccnc2)CC1` [Compound 185, N-(1-(pyridin-3-ylmethyl)cyclopropane-1-carbonyl)-O-(trans-3-(2-(5,6,7,8-tetrahydro-1,8-naphthyridin-2-yl)ethyl)cyclobutyl)homoserine], the IC50 was less than 50 nM. For the compound `CC1(C(=O)NC(CCOCCCCc2ccc3c(n2)NCCC3)C(=O)O)CCOCC1` (centres unmarked) [Compound 187, N-(4-methyltetrahydro-2H-pyran-4-carbonyl)-O-(4-(5,6,7,8-tetrahydro-1,8-naphthyridin-2-yl)butyl)homoserine], the IC50 lay in the range of 250 to 1000 nM.

In the case of `O=C(NC(CCOCCCCc1ccc2c(n1)NCCC2)C(=O)O)c1c(Cl)cccc1Cl` (centres unmarked) [Compound 188, N-(2,6-dichlorobenzoyl)-O-(4-(5,6,7,8-tetrahydro-1,8-naphthyridin-2-yl)butyl)homoserine], the IC50 is 50 to 250 nM. The result for `O=C(NC(CCOCCCCc1ccc2c(n1)NCCC2)C(=O)O)c1c(Cl)cncc1Cl` (centres unmarked) [Compound 189, N-(3,5-dichloroisonicotinoyl)-O-(4-(5,6,7,8-tetrahydro-1,8-naphthyridin-2-yl)butyl)homoserine] reads 50 to 250 nM; that for `CC(C)(C)c1ccc(C2(C(=O)N[C@@H](CCO[C@H]3C[C@H](CCc4ccc5c(n4)NCCC5)C3)C(=O)O)CCC2)cc1` [Compound 190, N-(1-(4-(tert-butyl)phenyl)cyclobutane-1-carbonyl)-O-(trans-3-(2-(5,6,7,8-tetrahydro-1,8-naphthyridin-2-yl)ethyl)cyclobutyl)homoserine], less than 50 nM. `Cc1cncc(Cl)c1C(=O)N[C@@H](CCO[C@H]1C[C@@H](CCc2ccc3c(n2)NCCC3)C1)C(=O)O` [Compound 199, N-(3-chloro-5-methylisonicotinoyl)-O-(cis-3-(2-(5,6,7,8-tetrahydro-1,8-naphthyridin-2-yl)ethyl)cyclobutyl)homoserine]: the IC50 was 50 to 250 nM. The result for `CC(C)(C)OC(=O)NC(CCO[C@H]1C[C@H](CCc2ccc3c(n2)NCCC3)C1)C(=O)O` (stereo partly drawn) [Example 12A, N-(tert-butoxycarbonyl)-O-(trans-3-(2-(5,6,7,8-tetrahydro-1,8-naphthyridin-2-yl)ethyl)cyclobutyl)homoserine] reads 50 to 250 nM. `O=C(O)[C@H](CCO[C@H]1C[C@H](CCc2ccc3c(n2)NCCC3)C1)Nc1ncnc2ccccc12` [Example 224, N-(quinazolin-4-yl)-O-(trans-3-(2-(5,6,7,8-tetrahydro-1,8-naphthyridin-2-yl)ethyl)cyclobutyl)homoserine]: the IC50 was less than 50 nM.

As to `CC(C)(C)c1nccc(N[C@@H](CCO[C@H]2C[C@H](CCc3ccc4c(n3)NCCC4)C2)C(=O)O)n1` [Example 225, N-(2-(tert-butyl)pyrimidin-4-yl)-O-(trans-3-(2-(5,6,7,8-tetrahydro-1,8-naphthyridin-2-yl)ethyl)cyclobutyl)homoserine], the IC50 fell in the range of 250 to 1000 nM.

Consider `CC(C)(C)c1ccnc(N[C@@H](CCO[C@H]2C[C@H](CCc3ccc4c(n3)NCCC4)C2)C(=O)O)n1` [Example 226, N-(4-(tert-butyl)pyrimidin-2-yl)-O-(trans-3-(2-(5,6,7,8-tetrahydro-1,8-naphthyridin-2-yl)ethyl)cyclobutyl)homoserine], for which the IC50 was 250 to 1000 nM. For `O=C(O)C(CCO[C@H]1C[C@H](CCc2ccc3cccnc3n2)C1)Nc1ncnc2ccccc12` (stereo partly drawn) [Example 227, O-(trans-3-(2-(1,8-naphthyridin-2-yl)ethyl)cyclobutyl)-N-(quinazolin-4-yl)homoserine], the 50% inhibitory concentration (IC50) was 250 to 1000 nM. For `O=C(O)C(CCO[C@H]1C[C@H](CCc2ccc3cccnc3n2)C1)Nc1ncnc2ccccc12` (stereo partly drawn) [Example 228, O-(trans-3-(2-(1,8-naphthyridin-2-yl)ethyl)cyclobutyl)-N-(quinazolin-4-yl)homoserine], the IC50 is less than 50 nM. Turning to `CC(C)(C)c1cc(N[C@@H](CCO[C@H]2C[C@H](CCc3ccc4c(n3)NCCC4)C2)C(=O)O)ncn1` [Example 229, N-(6-(tert-butyl)pyrimidin-4-yl)-O-(trans-3-(2-(5,6,7,8-tetrahydro-1,8-naphthyridin-2-yl)ethyl)cyclobutyl)homoserine], the half-inhibitory concentration (IC50) was 50 to 250 nM.

“N-isonicotinoyl-O-(trans-3-(2-(5,6,7,8-tetrahydro-1,8-naphthyridin-2-yl)ethyl)cyclobutyl)-D-homoserine [Compound 58]”: the IC50 was greater than 1000 nM. Take “N—((R)-2-hydroxy-2-phenylacetyl)-O-(4-(5,6,7,8-tetrahydro-1,8-naphthyridin-2-yl)butyl)-D-homoserine [Compound 77]”: the IC50 is greater than 1000 nM.
